{"source": "patent US4125606A", "about": "“Octapeptide useful for the treatment of diabetes” (Choay S.A., priority 1974, dated 1978)", "key": {"[1]": {"test_system": "isolated hemidiaphragm of the rat", "test": "Consumption of glucose in vitro, isolated rat hemidiaphragm", "format": "cell-based, Wistar albino male rats", "conditions": "related to the weight of tissue in grams and per hour; glucose 2 mg/ml, insulin 500 μU/ml, compound (I) 250 μg/ml", "protocol": "To follow this consumption, the isolated hemidiaphragm of the rat in vitro was used. The method employed is that described by Park et al. (Effect of insulin on free glucose content of rat diaphragm in vitro - Amer. J. Physiol. 182: 12-16, 1955). The hemidiaphragm derived from Wistar albino male rats each weighing 200 to 250 g was used. The rats were fed freely for 7 days and then starved for 24 hours. The solutions studied contained 2 mg/ml of glucose, 500 μU/ml of insulin. The compound (I) was introduced at 250 μg/ml. The consumption of glucose related to the weight of tissue in grams and per hour was under these conditions: […]"}, "[2]": {"test_system": "diabetic rats", "test": "Effect on glycemia in diabetic animals", "format": "in vivo", "conditions": "diabetic rats fasted 4 hours; glucose 0.5 g/kg; octapeptide 2 μg/g", "protocol": "In this test, the drop in glycemia was compared after the simultaneous injection of glucose, on the one hand, and, on the other hand, either of the octapeptide at the dosage of […], or of insulin, or again of both at once. In that latter case the dosage of octapeptide used was also 2 μg/g.\nThe tests were carried out on diabetic rats, kept fasting for 4 hours before the injection of glucose (at the dose of 0.5 g/kg of animal)."}, "[3]": {"test_system": "hepatic cells", "test": "Insulin binding to hepatic cells", "format": "cell-based", "protocol": "In the same way, the ratio of insulin binding to hepatic cells placed in a suitable reaction medium was measured. When the medium contains octapeptide (I), the ratio of insulin binding to the hepatic cells increases. The result is similar if the said cells are incubated with octapeptide (I)."}, "[4]": {"target": "glyceraldehyde 3-phosphate dehydrogenase (Homo sapiens, UniProt P04406)", "sequence (P04406 whole entry, species assumed)": "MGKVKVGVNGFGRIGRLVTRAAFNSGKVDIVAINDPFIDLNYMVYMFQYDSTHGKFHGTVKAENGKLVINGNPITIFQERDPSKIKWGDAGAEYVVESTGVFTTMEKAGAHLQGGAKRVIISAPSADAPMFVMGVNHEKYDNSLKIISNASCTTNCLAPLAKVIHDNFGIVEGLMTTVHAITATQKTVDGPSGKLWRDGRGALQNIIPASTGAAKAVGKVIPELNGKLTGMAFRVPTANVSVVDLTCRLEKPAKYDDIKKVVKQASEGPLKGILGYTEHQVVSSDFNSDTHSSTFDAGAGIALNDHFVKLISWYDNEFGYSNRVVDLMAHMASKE", "test": "Enzymatic effect in vitro: lifting of somantine inhibition of glyceraldehyde 3-phosphate dehydrogenase", "format": "biochemical", "protocol": "In this test, the compound (I) was tested for its ability to raise the inhibition of a somantine extracted from a plasma with respect to the action of glyceraldehyde 3-phosphate dehydrogenase.\nTo this end, the activity of the enzyme in the presence successively of somantine alone, of the compound (I) alone, and finally in the presence of somantine and of the compound (I), were measured.\nIn this test, the glyceraldehyde 3-phosphate dehydrogenase was used at a concentration of 0.5 μg/ml, the somantine at 25 μg/ml, and the compound (I) at 50 μg/ml.\nThe method used for the measurements is that of Pihl and Lang (J. Biol. Chem 237: 1356-1362, 1962)."}, "[5]": {"test_system": "mice", "test": "Influence on glycemia in mice after glucose injection", "format": "in vivo", "from_the_text": "Influence of octapeptide (I) on glycemia has been determined in mice under conditions similar to those described for rabbits. The experiment included two series of tests aimed at studying the immediate effects and the prolonged effects.\nIn the first series of tests, a simultaneous injection of glucose and of the octapeptide (I) was made, and the lowering of glycemia with respect to that of control animals which had not received glucose, was followed as a function of time.\nThe injections were respectively of 0.25 g of glucose and 2 mg per kilo of body weight of the animal, namely about 40 μ/g, of octapeptide (I) or […].\nIn the second series of tests, the mice received the product before the injection of glucose. Three injections each of 40 μg of octapeptide (I) were administered respectively 72, 48 and 24 hours before the injection of glucose."}, "[6]": {"test_system": "insulin receptors of lipid cells", "test": "Insulin binding to trypsinated lipid cells", "format": "cell-based", "conditions": "octapeptide introduced into the medium; trypsinated cells alone no longer fix insulin", "from_the_text": "In an attempt to elucidate the mechanism of action of the octapeptide (I) with respect to insulin, the phenomena were first studied at the level of the insulin receptors of lipid cells trypsinated to destroy said receptors."}, "[7]": {"test_system": "mice", "test": "Tolerance: acute and subacute toxicity study in mice", "format": "in vivo", "conditions": "1 month, daily dosages 5 to 10 times the active dosage", "protocol": "An acute and subacute toxicity study was carried out on mice for 1 month, each mouse receiving daily dosages corresponding to 5 to 10 times the active dosage."}, "[8]": {"test_system": "adult rabbits", "test": "Effect on the in vivo effect of insulin: intravenous glucose test in the rabbit", "protocol": "The assays were carried out in the course of the tests carried out to determine the resistance to glucose injected by the intravenous route in the rabbit.\nThese tests were done on adult rabbits, which had been subjected to prior fasting for 24 hours. Blood was drawn off and the glucose level in the blood samples was determined. The measurement was carried out by the ferricyanide method as adapted for the \"Technicon Autoanalyser\" (J. Biol. Chem. 120: 51-55, 1937). In this way the glucose level on fasting, then its variation after the intravenous injection of glucose, at the dose of 1 gram per kilo, was determined. These measurements were then renewed in rabbits which had received, 5 minutes after the glucose, an intravenous injection of the compound (1) (5 μg/kg)."}, "[9]": {"test_system": "glucose receptors of the Langerhans islets", "test": "Insulin liberated by Langerhans islets removed from treated animals", "format": "in vivo", "conditions": "islets removed one day or four days after injection; medium supplemented with glucose", "protocol": "Finally, the effect of the octapeptide (I) on the glucose receptors of the Langerhans islets was determined. For this purpose, the octapeptide (I) was injected into animals.\nOne day or four days later, the animals were killed and the islets of Langerhans removed. The latter were placed in a reaction medium supplemented with glucose, and the amount of insulin liberated was determined and compared to controls."}}, "note": "Where no end group is shown, it is not given here."}
{"substance": "insulin: insulin; in the hemidiaphragm test 500 μU/ml in a 2 mg/ml glucose solution [reference compound]", "values": [{"measurement": "Consumption of glucose", "setting": "[1]", "result": "4.10 ± 0.15", "unit": "mg"}, {"measurement": "course of glycemia after glucose injection (in words)", "setting": "[2]", "result": "decreases rapidly, stabilises, then rises again"}]}
{"substance": "LSRLFDNA [compound (I), leucyl - seryl - arginyl - leucyl - phenylalanyl - aspartyl - asparaginyl - alanine]", "values": [{"measurement": "ratio of insulin binding to hepatic cells (in words)", "setting": "[3]; cells incubated with octapeptide (I)", "result": "similar"}, {"measurement": "ratio of insulin binding to hepatic cells (in words)", "setting": "[3]; medium contains octapeptide (I)", "result": "increases"}, {"measurement": "effect on the inhibiting effect of somantine (in words)", "setting": "[4]; compound (I) 50 μg/ml together with somantine 25 μg/ml", "result": "inhibiting effect of somantine to be partly suppressed"}, {"measurement": "effect on the activity of the enzyme (in words)", "setting": "[4]; compound (I) alone, 50 μg/ml", "result": "practically without effect on the activity of the enzyme"}, {"measurement": "drop in glycemia, immediate effect (in words)", "setting": "[5]; simultaneous injection of glucose 0.25 g and octapeptide 2 mg per kilo", "result": "drop in glycemia distinctly more accentuated"}, {"measurement": "drop in glycemia, prolonged effect (in words)", "setting": "[5]; three injections of 40 μg at 72, 48 and 24 hours before glucose, versus control mice receiving only glucose", "result": "more rapid drop in glycemia"}, {"measurement": "course of glycemia after glucose injection (in words)", "setting": "[2]", "result": "glycemia is practically unmodified"}, {"measurement": "insulin binding to trypsinated lipid cells (in words)", "setting": "[6]", "result": "the binding reappears"}, {"measurement": "toxic effect, macro and microscopic studies (in words)", "setting": "[7]", "result": "not shown any toxic effect"}, {"measurement": "decrease in the blood glucose level after intravenous glucose (in words)", "setting": "[8]; rabbits fasted 24 hours, glucose 1 g/kg i.v., compound 5 μg/kg i.v. 5 minutes after the glucose", "result": "decrease in the glucose level is greater"}, {"measurement": "glucose level reached, compared with fasting level (in words)", "setting": "[8]; rabbits, glucose 1 g/kg i.v., compound 5 μg/kg i.v.", "result": "glucose level even reached values less than those which were measured in the fasting rabbits"}, {"measurement": "persistence of the effect on carbohydrate metabolism (in words)", "setting": "[8]; similar tests at intervals of several days after the injection", "result": "persists several days"}, {"measurement": "level of liberated insulin compared to controls (in words)", "setting": "[9]", "result": "very substantial increase"}]}
